Results published in patent US20260258047A1, “COMPOSITIONS USEFUL FOR MODULATING SPLICING” (Skyhawk Therapeutics, Inc., priority 2023, published 2026).
pIC50: −log10 of the molar value.

Tested on: ATXN3 transcripts containing exon 4
Assay: ATXN3 quantitative splicing assay (qPCR, E4E5 primers/probe)
Assay type: cell-based
Conditions: Human neuroblastoma SK-N-MC cells, 24 h treatment, qPCR of transcripts containing exon 4; read-out: ATXN3 Potency - Splicing E4E5 IC50
Protocol: Human neuroblastoma SK-N-MC cells were plated in 384-well plates at 20,000 cells/well. Twenty-four hours after plating, cells were treated with compounds for 24 h at appropriate concentrations ranging from 30 μM to 0.6 nM (0.3% DMSO). Treated cells were lysed in 15 μL of lysis buffer, and cDNA was synthesized using the Fast Advanced Cells-to-Ct kit. Two μL of each cDNA was used in qPCR reactions to confirm the exon 4 skipped transcripts of ATXN3. A second set of primers/probe E4E5 was used to detect the transcripts containing exon 4. The third set of primers/probe E8E9 was used to detect total gene level of ATXN3. The qPCR reactions were prepared in 384-well plates in 10 μL volume, using TaqMan™ Fast Advanced Master Mix with primers and probes shown in the table below. Reactions were run in a Quant Studio 6 qPCR instrument with default settings.
The primers and probes are listed below in Table 3.

SMILES	pIC50
C[C@H](F)[C@H](N)Cc1cc2c(NCc3c(F)cncc3F)nc(Cl)nn2c1Br [Compound 4, 6-((2R,3S)-2-amino-3-fluorobutyl)-7-bromo-2-chloro-N-((3,5-difluoropyridin-4-yl)methyl)pyrrolo[2,1-f][1,2,4]triazin-4-amine]	6.30 to 7.00
C[C@H](F)[C@H](N)Cc1cc2c(NCc3ncccc3F)nc(Cl)nn2c1Br [Compound 3, 6-((2R,3S)-2-amino-3-fluorobutyl)-7-bromo-2-chloro-N-((3-fluoropyridin-2-yl)methyl)pyrrolo[2,1-f][1,2,4]triazin-4-amine]	5.30 to 6.30
C[C@H](F)[C@H](N)Cc1cc2c(NCc3ccncc3F)nc(Cl)nn2c1Br [Compound 1, 6-((2R,3S)-2-amino-3-fluorobutyl)-7-bromo-2-chloro-N-((3-fluoropyridin-4-yl)methyl)pyrrolo[2,1-f][1,2,4]triazin-4-amine]	7.00 to 11.00
Cc1c(C[C@@H](N)CC2CC2)cc2c(NCc3ccncc3F)nc(Cl)nn12 [Compound 10, (S)-6-(2-amino-3-cyclopropylpropyl)-2-chloro-N-((3-fluoropyridin-4-yl)methyl)-7-methylpyrrolo[2,1-f][1,2,4]triazin-4-amine]	5.30 to 6.30
C[C@H](F)[C@H](N)Cc1cc2c(NCc3ccncn3)nc(Cl)nn2c1Br [Compound 2, 6-((2R,3S)-2-amino-3-fluorobutyl)-7-bromo-2-chloro-N-(pyrimidin-4-ylmethyl)pyrrolo[2,1-f][1,2,4]triazin-4-amine]	7.00 to 11.00
Cc1c(C[C@@H](N)[C@H](C)F)cc2c(NCc3ccncc3F)nc(Cl)nn12 [Compound 7, 6-((2R,3S)-2-amino-3-fluorobutyl)-2-chloro-N-((3-fluoropyridin-4-yl)methyl)-7-methylpyrrolo[2,1-f][1,2,4]triazin-4-amine]	6.30 to 7.00
Cc1c(C[C@@H](N)CC2CC2)cc2c(NCc3ccncc3)nc(Cl)nn12 [Compound 8, (S)-6-(2-amino-3-cyclopropylpropyl)-2-chloro-7-methyl-N-(pyridin-4-ylmethyl)pyrrolo[2,1-f][1,2,4]triazin-4-amine]	5.30 to 6.30
Cc1c(C[C@@H](N)[C@H](C)F)cc2c(NCc3ccncc3)nc(Cl)nn12 [Compound 5, 6-((2R,3S)-2-amino-3-fluorobutyl)-2-chloro-7-methyl-N-(pyridin-4-ylmethyl)pyrrolo[2,1-f][1,2,4]triazin-4-amine]	6.30 to 7.00
Cc1c(C[C@@H](N)[C@H](C)F)cc2c(NCc3ccncn3)nc(Cl)nn12 [Compound 6, 6-((2R,3S)-2-amino-3-fluorobutyl)-2-chloro-7-methyl-N-(pyrimidin-4-ylmethyl)pyrrolo[2,1-f][1,2,4]triazin-4-amine]	6.30 to 7.00
Cc1c(C[C@@H](N)CC2CC2)cc2c(NCc3ccncn3)nc(Cl)nn12 [Compound 9, (S)-6-(2-amino-3-cyclopropylpropyl)-2-chloro-7-methyl-N-(pyrimidin-4-ylmethyl)pyrrolo[2,1-f][1,2,4]triazin-4-amine]	5.30 to 6.30
